This experiment addresses T1, Low molecular weight protein-tyrosine phosphatase A (Mycobacterium tuberculosis, UniProt P9WIA1).
T1 sequence (P9WIA1 whole entry): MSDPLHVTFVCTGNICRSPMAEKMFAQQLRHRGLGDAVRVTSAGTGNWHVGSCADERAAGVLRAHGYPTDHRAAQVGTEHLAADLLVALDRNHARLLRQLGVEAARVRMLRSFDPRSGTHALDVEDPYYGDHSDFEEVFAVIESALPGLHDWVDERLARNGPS
Kind of experiment: Non-competitive inhibition of Mycobacterium tuberculosis PTPA using p-nitrophenyl phosphate as substrate by Lineweaver-Burk plot analysis.

By IC50 is commonly meant the point on the concentration scale where inhibition reaches its midpoint. A low value points to greater potency in that assay. The Ki is the dissociation constant of the complex between target and ligand, obtained from inhibition or displacement. The low end stands for tighter binding, the high end for weaker binding. As for `O=C(O)/C1=C/C#Cc2ccccc2C#CCCNC1=O`, the IC50 worked out at 110 µM and the affinity, expressed as Ki, was 22.5 µM.

`O=C(O)C1CCCc2ccccc2CCCCNC1=O` (racemic) gave an IC50 of 236 µM and a Ki of 101 µM.
